How the values were obtained:
Liver [1] = assay: Drug metabolism in Sprague-Dawley rat assessed as 3-Amino-11-hydroxy-6-(3-hydroxypropyl)-6,11-dihydro-5Hindeno[1,2-c]isoquinolin-5-one level in liver at 40 mg/kg, po administered 3 days; assay type: ADME, organism-based; design: dose 40 mg/kg, route oral; details: in vivo, 72 h
Liver [2] = assay: Drug metabolism in Sprague-Dawley rat assessed as N-[6-(3-Aminopropyl)-5,11-dioxo-6,11-dihydro-5H-indeno- [1,2-c]isoquinolin-3-yl]acetamide level in liver at 40 mg/kg, po administered 3 days; assay type: ADME, organism-based; design: dose 40 mg/kg, route oral; details: in vivo, 72 h
Serum [3] = assay: Drug metabolism in Sprague-Dawley rat assessed as 6-(3-Hydroxypropyl)-3-amino-5H-indeno[1,2- c]-isoquinoline-5,11(6H)dione level in serum at 40 mg/kg, po administered 3 days; assay type: ADME, organism-based; design: dose 40 mg/kg, route oral; details: in vivo, 72 h
[4] = Drug metabolism in Sprague-Dawley rat assessed as parent compound level in liver at 40 mg/kg, po administered 3 days; assay type: ADME, organism-based; design: dose 40 mg/kg, route oral; details: read-out: Drug metabolism
[5] = Drug metabolism in Sprague-Dawley rat assessed as N-[6-(3-Aminopropyl)-5,11-dioxo-6,11-dihydro-5H-indeno- [1,2-c]isoquinolin-3-yl]acetamide level in mammary gland at 40 mg/kg, po administered 3 days; assay type: ADME, organism-based; design: dose 40 mg/kg, route oral; details: in vivo, 72 h
[6] = biological target: T1, Retinoic acid receptor RXR-alpha (Homo sapiens, UniProt P19793); assay: Agonist activity at human RXRalpha expressed in african green monkey COS1 cells assessed as induction of RXRE transcriptional activity after 12 hrs by luciferase reporter gene assay; assay type: functional, cell-based, COS-1
T1 sequence (P19793 whole entry): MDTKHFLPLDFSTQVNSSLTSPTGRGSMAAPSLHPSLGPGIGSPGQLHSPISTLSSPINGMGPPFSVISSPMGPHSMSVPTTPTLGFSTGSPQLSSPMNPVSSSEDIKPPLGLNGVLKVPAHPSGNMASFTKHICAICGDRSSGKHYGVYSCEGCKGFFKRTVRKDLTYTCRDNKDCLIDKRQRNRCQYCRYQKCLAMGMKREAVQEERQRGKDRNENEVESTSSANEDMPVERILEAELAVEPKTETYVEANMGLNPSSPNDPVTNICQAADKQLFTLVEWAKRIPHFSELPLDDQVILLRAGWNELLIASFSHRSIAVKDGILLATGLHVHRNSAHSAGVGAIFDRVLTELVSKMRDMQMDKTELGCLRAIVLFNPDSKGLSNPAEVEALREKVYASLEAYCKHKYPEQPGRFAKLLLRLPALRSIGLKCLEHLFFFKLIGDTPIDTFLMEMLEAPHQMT

Liver microsomes [7] = assay: Drug metabolism in human liver microsomes assessed as formation of 6-(3-hydroxypropyl)-3-amino-5H-indeno[1,2-c]-isoquinoline-5,11(6H)-dione at 1 uM preincubated for 10 mins prior to NADPH addition measured 60 mins post NADPH addition; assay type: ADME, Microsome; details: 1 h
Hepatocyte [8] = assay: Drug metabolism in human hepatocytes assessed as formation of 6-(3-Hydroxypropyl)-3-amino 5H-indeno[1,2c]-isoquinoline-5,11(6H)dione at 50 uM after 4 hrs; assay type: ADME, cell-based
Hepatocyte [9] = assay: Drug metabolism in human hepatocytes assessed as formation of 6-(3-aminopropyl)-3-((2R,3R,4S,5S,6R)-3,4,5-trihydroxy-6-(hydroxymethyl)tetrahydro-2H-pyran-2-ylamino)-5H-indeno[1,2-c]isoquinoline-5,11(6H)-dione at 50 uM after 4 hrs; assay type: ADME, cell-based
Liver microsomes [10] = assay: Metabolic stability in human liver microsomes assessed as GSH conjugate formation at 10 uM; assay type: ADME, Microsome
Hepatocyte [11] = assay: Drug metabolism in human hepatocytes assessed as formation of N-[6-(3-Hydroxypropyl)-5,11-dioxo-6,11-dihydro-5H-5Hindeno[ 1,2-c]isoquinolin 3-yl]acetamide at 50 uM after 4 hrs; assay type: ADME, cell-based
Liver [12] = assay: Drug metabolism in Sprague-Dawley rat assessed as 3-Amino-6-(3-aminopropyl)-11-hydroxy-6,11-dihydro-5Hindeno[1,2-c]isoquinolin-5-one level in liver at 40 mg/kg, po administered 3 days; assay type: ADME, organism-based; design: dose 40 mg/kg, route oral; details: in vivo, 72 h
Liver microsomes [13] = assay: Drug metabolism in human liver microsomes assessed as formation of 6-(3-hydroxypropyl)-3-amino-5H-indeno[1,2-c]-isoquinoline-5,11(6H)-dione at 1 uM after 60 mins in presence of NADPH and monoamine oxidase inhibitors clorgiline, pargyline; assay type: ADME, Microsome; details: 1 h
[14] = Drug metabolism in Sprague-Dawley rat assessed as parent compound level in mammary gland at 40 mg/kg, po administered 3 days; assay type: ADME, organism-based; design: dose 40 mg/kg, route oral; details: read-out: Drug metabolism
Hepatocyte [15] = assay: Drug metabolism in human hepatocytes assessed as formation of 3-Amino 6-(3-aminopropyl)-11-hydroxy-6,11-dihydro-5H-indeno[1,2-c]isoquinolin-5-one at 50 uM after 4 hrs; assay type: ADME, cell-based
[16] = Drug metabolism in Sprague-Dawley rat assessed as parent compound level in serum at 40 mg/kg, po administered 3 days; assay type: ADME, organism-based; design: dose 40 mg/kg, route oral; details: read-out: Drug metabolism
Liver [17] = assay: Drug metabolism in Sprague-Dawley rat assessed as 6-(3-Hydroxypropyl)-3-amino-5H-indeno[1,2- c]-isoquinoline-5,11(6H)dione level in liver at 40 mg/kg, po administered 3 days; assay type: ADME, organism-based; design: dose 40 mg/kg, route oral; details: in vivo, 72 h
Hepatocyte [18] = assay: Drug metabolism in human hepatocytes assessed as formation of 3-Amino-11-hydroxy-6-(3-hydroxypropyl)-6,11-dihydro-5H-5Hindeno[1,2-c]isoquinolin-5-one at 50 uM after 4 hrs; assay type: ADME, cell-based
[19] = Drug metabolism in Sprague-Dawley rat assessed as 3-Amino-11-hydroxy-6-(3-hydroxypropyl)-6,11-dihydro-5Hindeno[1,2-c]isoquinolin-5-one level in mammary gland at 40 mg/kg, po administered 3 days; assay type: ADME, organism-based; design: dose 40 mg/kg, route oral; details: in vivo, 72 h
Serum [20] = assay: Drug metabolism in Sprague-Dawley rat assessed as N-[6-(3-Aminopropyl)-5,11-dioxo-6,11-dihydro-5H-indeno- [1,2-c]isoquinolin-3-yl]acetamide level in serum at 40 mg/kg, po administered 3 days; assay type: ADME, organism-based; design: dose 40 mg/kg, route oral; details: in vivo, 72 h
[21] = Cytotoxicity against human HEK293 cells assessed as cell survival at 50 uM relative to control; assay type: cell-based; details: read-out: Survival
Liver [22] = assay: Drug metabolism in Sprague-Dawley rat assessed as N-[6-(3-Hydroxypropyl)-5,11-dioxo-6,11-dihydro-5Hindeno[1,2-c]isoquinolin-3-yl]acetamide level in liver at 40 mg/kg, po administered 3 days; assay type: ADME, organism-based; design: dose 40 mg/kg, route oral; details: in vivo, 72 h
[23] = Drug metabolism in Sprague-Dawley rat assessed as 6-(3-Hydroxypropyl)-3-amino-5H-indeno[1,2- c]-isoquinoline-5,11(6H)dione level in mammary gland at 40 mg/kg, po administered 3 days; assay type: ADME, organism-based; design: dose 40 mg/kg, route oral; details: in vivo, 72 h
[24] = Inhibition of TNFalpha-induced human NFkappaB activity in HEK293 cells incubated for 6 hrs followed by compound wash out measured after 5 mins by luciferase assay; assay type: cell-based
[25] = Drug metabolism in Sprague-Dawley rat assessed as 3-Amino-6-(3-aminopropyl)-11-hydroxy-6,11-dihydro-5Hindeno[1,2-c]isoquinolin-5-one level in mammary gland at 40 mg/kg, po administered 3 days; assay type: ADME, organism-based; design: dose 40 mg/kg, route oral; details: in vivo, 72 h
Liver microsomes [26] = assay: Half life in human liver microsomes at 1 uM; assay type: ADME, Microsome
Hepatocyte [27] = assay: Drug metabolism in human hepatocytes assessed as formation of N-[6-(3-Aminopropyl)-11-hydroxy-5-oxo-6,11-dihydro-5H-5Hindeno[ 1,2-c]isoquinolin-3-yl]acetamide at 50 uM after 4 hrs; assay type: ADME, cell-based
Liver microsomes [28] = assay: Drug metabolism in human liver microsomes assessed as formation of 3-Amino 6-(3-aminopropyl)-11-hydroxy-6,11-dihydro-5H-indeno[1,2-c]isoquinolin-5-one at 1 uM preincubated for 10 mins prior to NADPH addition measured 60 mins post NADPH addition; assay type: ADME, Microsome; details: 1 h
HEK293 = assay: Inhibition of TNFalpha-induced human NFkappaB activity in HEK293 cells at 50 uM incubated for 6 hrs followed by compound wash out measured after 5 mins by luciferase assay; assay type: cell-based
Hepatocyte [29] = assay: Drug metabolism in human hepatocytes assessed as formation of N-[6-(3-Aminopropyl)-5,11-dioxo-6,11-dihydro-5H-indeno-[1,2-c]isoquinolin-3-yl]acetamide at 50 uM after 4 hrs; assay type: ADME, cell-based
Serum [30] = assay: Drug metabolism in Sprague-Dawley rat assessed as 3-Amino-6-(3-aminopropyl)-11-hydroxy-6,11-dihydro-5Hindeno[1,2-c]isoquinolin-5-one level in serum at 40 mg/kg, po administered 3 days; assay type: ADME, organism-based; design: dose 40 mg/kg, route oral; details: in vivo, 72 h
[31] = Drug metabolism in Sprague-Dawley rat assessed as N-[6-(3-Hydroxypropyl)-5,11-dioxo-6,11-dihydro-5Hindeno[1,2-c]isoquinolin-3-yl]acetamide level in mammary gland at 40 mg/kg, po administered 3 days; assay type: ADME, organism-based; design: dose 40 mg/kg, route oral; details: in vivo, 72 h
Serum [32] = assay: Drug metabolism in Sprague-Dawley rat assessed as 3-Amino-11-hydroxy-6-(3-hydroxypropyl)-6,11-dihydro-5Hindeno[1,2-c]isoquinolin-5-one level in serum at 40 mg/kg, po administered 3 days; assay type: ADME, organism-based; design: dose 40 mg/kg, route oral; details: in vivo, 72 h
[33] = Cytotoxicity against african green monkey COS1 cells assessed as cell survival at 50 uM relative to control; assay type: cell-based; details: chlorocebus aethiops, COS-1 cells; read-out: Survival
Serum [34] = assay: Drug metabolism in Sprague-Dawley rat assessed as N-[6-(3-Hydroxypropyl)-5,11-dioxo-6,11-dihydro-5Hindeno[1,2-c]isoquinolin-3-yl]acetamide level in serum at 40 mg/kg, po administered 3 days; assay type: ADME, organism-based; design: dose 40 mg/kg, route oral; details: in vivo, 72 h
Plasma = details: human, 10 µM
Description: Plasma protein binding in human plasma at 10 uM

NCCCn1c2c(c3ccc(N)cc3c1=O)C(=O)c1ccccc1-2
Drug metabolism (Liver [1]): Active
Drug metabolism (Liver [2]): Active
Drug metabolism (Serum [3]): Not Active
concentration at 72 h [4]: 4300 ng/g
Drug metabolism [5]: Not Active
EC50 [6]: 3.37 µM
Drug metabolism (Liver microsomes [7]): Active
Drug metabolism (Hepatocyte [8]): Active
Drug metabolism (Hepatocyte [9]): Active
Stability (Liver microsomes [10]): Stable
Drug metabolism (Hepatocyte [11]): Active
Drug metabolism (Liver [12]): Active
Drug metabolism (Liver microsomes [13]): Active
concentration at 72 h [14]: 300 ng/g
Drug metabolism (Hepatocyte [15]): Active
concentration at 72 h [16]: 800 ng/mL
Drug metabolism (Liver [17]): Active
Drug metabolism (Hepatocyte [18]): Active
Drug metabolism [19]: Not Active
Drug metabolism (Serum [20]): Active
viability at 50 µM [21]: 109%
Drug metabolism (Liver [22]): Active
Drug metabolism [23]: Not Active
IC50 [24]: 26.3 µM
Drug metabolism [25]: Not Active
t1/2 (Liver microsomes [26]): 2.17 h
Drug metabolism (Hepatocyte [27]): Active
Drug metabolism (Liver microsomes [28]): Active
inhibition (HEK293): 84.9%
Drug metabolism (Hepatocyte [29]): Active
Drug metabolism (Serum [30]): Not Active
Drug metabolism [31]: Not Active
Drug metabolism (Serum [32]): Not Active
viability at 50 µM [33]: 58.6%
Drug metabolism (Serum [34]): Not Active
PPB (Plasma): 75%

Reference: ChEMBL document CHEMBL2169830, “Identification, synthesis, and biological evaluation of the metabolites of 3-amino-6-(3'-aminopropyl)-5H-indeno[1,2-c]isoquinoline-5,11-(6H)dione (AM6-36), a promising rexinoid lead compound for the development of cancer chemotherapeutic and chemopreventive agents” (J Med Chem, 2012)
